Series [1] deals with patients receiving intracavernous injection. The following applies: pooled publications; cited from earlier work.
The subject of series [2] is patients with primary premature ejaculation. Put plainly: On-demand treatment of primary premature ejaculation: onset of action. The following applies: intracavernosal injection, 5-20 mcg, 20 mcg/ml. Type of series: in vivo, men.
Description: Side-effects are dose related and include dizziness, headache, nausea, blurred vision and dry mouth.
The doses start at lower doses such as 5 mcg=0.25 ml and progress to higher doses such as 10 mcg=0.5 ml and 20 mcg=1 ml, as needed, to achieve the desired effect.
Series [3] deals with men with premature ejaculation. The following applies: cited from earlier work.

On to `COc1ccc(Cc2nccc3cc(OC)c(OC)cc23)cc1OC` [Papaverine], for which, in series [1], the “Fibrosis (%)” value was 5.7%, the “Liver Enzymes (%)” value is listed as 1.6%, the “Pain (%)” value was 4% and the “Priapism (%)” value was 7.1%.
For `CCCCC[C@H](O)/C=C/[C@H]1[C@H](O)CC(=O)[C@@H]1CCCCCCC(=O)O` [Alprostadil], in series [2], the “Onset of Action” value lay in the range of 5 to 10 min.
Regarding `CN(C)CCCN1c2ccccc2CCc2ccc(Cl)cc21` [Clomipramine], the “Effect at delaying ejaculation” value in series [3] (oral administration) is reported as “significant effect at delaying ejaculation”. Further, the “Time the drug needs to be taken before sexual relations” value in series [3] (oral, on-demand use) was 3 to 4 h.

Source of the values: patent US9192613B1, “Treatment method for primary premature ejaculation” (Sapere IP, LLC, priority 2014, dated 2015).
